A short description of series [1]: Apparent density of the lyophilizate. It counts as physicochemical. Conditions: intermediate lyophilized taxane (first lyophilization from organic solvent). The source says:
The apparent density of the lyophilizate is defined as the quotient between the mass of the lyophilization cake in grams and its volume in milliliters.
The apparent density of the lyophilizates has been carefully assessed, and after a great number of experiments the apparent density values in which the technical effects of the invention are possible such as easy reconstitution of said solid composition of lyophilized taxane in an aqueous solution free from organic solvent were obtained. […] In other words, the lower the apparent density of the lyophilization cake, the fastest its dissolution. Also, if the apparent density of the solid composition of lyophilized taxane of the present invention is very low, the concentration of the tensoactive is not enough to maintain said taxane in solution, and said taxane precipitates rapidly.

Series [2] in a line: Solubility / dissolution in aqueous solutions without organic solvent. Format: physicochemical. The following applies: for dissolution of the intermediate lyophilized taxane in aqueous Solutol HS15 solution: aqueous Solutol HS15 mixture with excipient (mannitol/citric acid or povidone), no organic solvent. How it is done: The intermediate lyophilized taxane is dissolved in aqueous solutions of polymers or a mixture of said polymers, namely Lutrol™ F68, Solutol™ HS15, povidone K12 PF or K17 PF.

The conditions of series [3]: after administration to mammals, compared to polysorbates; cited from earlier work.
Series [4] in a line: Chemical degradation of docetaxel in aqueous tensoactive solution. Format: physicochemical. Conditions: pH maintained at values higher than 6.
For series [5] the following is noted: estimated by the World Health Organization; cited from earlier work.

For the molecule `CC(=O)O[C@@]12CO[C@@H]1C[C@H](O)[C@@]1(C)C(=O)[C@H](O)C3=C(C)[C@@H](OC(=O)[C@H](O)[C@@H](NC(=O)OC(C)(C)C)c4ccccc4)C[C@@](O)([C@@H](OC(=O)c4ccccc4)[C@H]21)C3(C)C` [Example 1, docetaxel], the apparent density in series [1] stood at 0.025 g/mL. In addition, the “dissolution of the intermediate lyophilized taxane in aqueous Solutol HS15 solution” value in series [2] is given as “readily dissolved”.

“Polyethylene glycol-15-hydroxystearate [Solutol HS15]”: in series [3], the histaminic release result is “very low histaminic release”. As to `CC(=O)O[C@@]12CO[C@@H]1C[C@H](O)[C@@]1(C)C(=O)[C@H](O)C3=C(C)[C@@H](OC(=O)[C@H](O)[C@@H](NC(=O)OC(C)(C)C)c4ccccc4)C[C@@](O)([C@@H](OC(=O)c4ccccc4)[C@H]21)C3(C)C` [docetaxel], the “degradation to 7-epidocetaxel” value in series [4] is recorded as at most 60%. For the same molecule, the “solubility in aqueous solutions” value in series [2] (commercially available API, absence of added organic solvents) is given as “not soluble”. In the case of polysorbate 80, the maximum daily dose in series [5] is 25 mg/kg of body weight. Regarding `CC(=O)O[C@@]12CO[C@@H]1C[C@H](O)[C@@]1(C)C(=O)[C@H](O)C3=C(C)[C@@H](OC(=O)[C@H](O)[C@@H](NC(=O)OC(C)(C)C)c4ccccc4)C[C@@](O)([C@@H](OC(=O)c4ccccc4)[C@H]21)C3(C)C` [Example 2, docetaxel], in series [1], the apparent density was found to be 0.014 g/mL. Further, the “dissolution of the intermediate lyophilized taxane in aqueous Solutol HS15 solution” value in series [2] is on record as “readily dissolved”.

The values are drawn from patent US20090215882A1, “LYOPHILIZED SOLID TAXANE COMPOSITION, A PROCESS FOR PREPARING SAID SOLID COMPOSITION, A PHARMACEUTICAL FORMULATION AND A KIT FOR SAID FORMULATION” (ERIOCHEM, S.A., priority 2006, published 2009).
